Biological target: Telomerase reverse transcriptase (Homo sapiens, UniProt O14746)
Assay: Inhibitory concentration against human telomerase.

Telomerase reverse transcriptase, sequence (O14746 whole entry): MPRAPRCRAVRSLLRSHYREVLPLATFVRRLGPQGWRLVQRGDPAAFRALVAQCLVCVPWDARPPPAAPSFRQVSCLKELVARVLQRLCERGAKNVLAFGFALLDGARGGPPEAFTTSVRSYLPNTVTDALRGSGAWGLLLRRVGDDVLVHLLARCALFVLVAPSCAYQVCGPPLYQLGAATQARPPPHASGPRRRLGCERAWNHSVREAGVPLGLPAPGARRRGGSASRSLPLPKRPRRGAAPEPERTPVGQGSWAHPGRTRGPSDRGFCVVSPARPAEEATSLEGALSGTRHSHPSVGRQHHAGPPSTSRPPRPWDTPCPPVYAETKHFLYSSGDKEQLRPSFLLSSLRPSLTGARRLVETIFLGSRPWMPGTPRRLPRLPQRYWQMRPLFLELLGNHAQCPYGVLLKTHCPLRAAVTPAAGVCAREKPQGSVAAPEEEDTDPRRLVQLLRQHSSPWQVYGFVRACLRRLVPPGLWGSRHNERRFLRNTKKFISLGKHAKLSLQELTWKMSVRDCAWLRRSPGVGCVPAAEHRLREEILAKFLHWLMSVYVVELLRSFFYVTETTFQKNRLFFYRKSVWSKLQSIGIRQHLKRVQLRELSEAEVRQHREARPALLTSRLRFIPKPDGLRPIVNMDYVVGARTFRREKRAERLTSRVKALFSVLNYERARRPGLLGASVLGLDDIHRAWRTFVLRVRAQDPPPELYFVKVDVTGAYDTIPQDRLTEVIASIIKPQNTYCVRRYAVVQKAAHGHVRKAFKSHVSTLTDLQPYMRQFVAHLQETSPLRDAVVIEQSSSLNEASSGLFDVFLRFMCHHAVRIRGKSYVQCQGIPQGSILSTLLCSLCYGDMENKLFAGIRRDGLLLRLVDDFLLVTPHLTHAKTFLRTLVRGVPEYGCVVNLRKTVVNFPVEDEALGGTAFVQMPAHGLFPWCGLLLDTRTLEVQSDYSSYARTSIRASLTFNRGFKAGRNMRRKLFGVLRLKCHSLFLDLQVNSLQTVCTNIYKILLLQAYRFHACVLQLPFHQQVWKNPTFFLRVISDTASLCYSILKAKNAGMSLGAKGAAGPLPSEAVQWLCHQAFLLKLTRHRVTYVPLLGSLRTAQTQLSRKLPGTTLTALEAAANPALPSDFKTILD

IC50: 23 µM
Structure (SMILES): C[N+]1(CCC(=O)Nc2ccc3c(c2)C(=O)c2ccc(NC(=O)CC[N+]4(C)CCCCC4CO)cc2C3=O)CCCCC1CO (stereo unspecified)

— ChEMBL document CHEMBL1130081, “Inhibition of human telomerase by a G-quadruplex-interactive compound” (J Med Chem, 1997)
